Measured values reported in the supplement of paper PMC10307832.

Tests used:
Assay in all cases: relative viability (nuclei count vs DMSO), 5 days (fraction); higher = more cells survive
[1] = compound: CC1=C(C=CC(=C1)[N+](=O)[O-])NS(=O)(=O)C2=C(C=CC(=C2)Cl)Cl [FH535]
How it was run: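 Acceptance criteria were a control CV below 25% and at least one doubling per plate. Lung cancer cell lines in 1536-well plates got five library-drug doses (not always all listed) √10 apart by pinning and were left 5 days with no medium change. Viability divides treated-well nuclei by vehicle-well nuclei and is the median across plates. Nuclei were counted by MetaXpress from 4× Hoechst images.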

[2] = compound: CC1=C(C=CC(=C1)[N+](=O)[O-])NS(=O)(=O)C2=C(C=CC(=C2)Cl)Cl [FH535] + CCNC(=O)c1noc(-c2cc(C(C)C)c(O)cc2O)c1-c1ccc(CN2CCOCC2)cc1 [Luminespib] (partner 0.01 µM)
How it was run: (§1)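 Lung cancer cell lines in 1536-well plates got either a single drug or a fixed anchor-drug dose together with five library-drug doses (not always all listed) in √10 steps, by pin tool, on the day after seeding. Nuclei were counted after 5 days, and relative viability is the treated-to-vehicle ratio of nuclei counts. Values are medians of duplicate plates.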

[3] = compound: CC1=C(C=CC(=C1)[N+](=O)[O-])NS(=O)(=O)C2=C(C=CC(=C2)Cl)Cl [FH535] + O=C(CCCCCCC(=O)Nc1ccccc1)NO [Vorinostat] (partner 1 µM)
How it was run: as §1

[4] = compound: CC1=C(C=CC(=C1)[N+](=O)[O-])NS(=O)(=O)C2=C(C=CC(=C2)Cl)Cl [FH535] + C[C@@H](Oc1cc(-c2cnn(C3CCNCC3)c2)cnc1N)c1c(Cl)ccc(F)c1Cl [Crizotinib] (partner 1 µM)
How it was run: as §1

[5] = compound: CC1=C(C=CC(=C1)[N+](=O)[O-])NS(=O)(=O)C2=C(C=CC(=C2)Cl)Cl [FH535] + C[C@]1(O)C[C@@H](c2nc(-c3ccc4ccc(-c5ccccc5)nc4c3)c3c(N)nccn32)C1 [Linsitinib] (partner 1 µM)
How it was run: as §1

| Cell Line | relative viability ([1]; 0.04 µM) | relative viability ([1]; 0.1265 µM) | relative viability ([1]; 0.4 µM) | relative viability ([1]; 1.265 µM) | relative viability ([2]; first compound 0.04 µM) | relative viability ([2]; first compound 0.1265 µM) | relative viability ([2]; first compound 0.4 µM) | relative viability ([2]; first compound 1.265 µM) | relative viability ([3]; first compound 0.04 µM) | relative viability ([3]; first compound 0.1265 µM) | relative viability ([3]; first compound 0.4 µM) | relative viability ([3]; first compound 1.265 µM) | relative viability ([4]; first compound 0.04 µM) | relative viability ([4]; first compound 0.1265 µM) | relative viability ([4]; first compound 0.4 µM) | relative viability ([4]; first compound 1.265 µM) | relative viability ([5]; first compound 0.04 µM) | relative viability ([5]; first compound 0.1265 µM) | relative viability ([5]; first compound 0.4 µM) | relative viability ([5]; first compound 1.265 µM) |
| --- | --- | --- | --- | --- | --- | --- | --- | --- | --- | --- | --- | --- | --- | --- | --- | --- | --- | --- | --- | --- |
| LOU-NH91 | 0.936 | 1.07 | 0.742 | 0.472 | 0.333 | 0.326 | 0.369 | 0.288 | 0.877 | 0.982 | 0.652 | 0.524 | 0.622 | 0.721 | 0.698 | 0.477 | 0.861 | 1.02 | 0.932 | 0.506 |
| LU99A | 0.812 | 0.973 | 0.854 | 0.811 | 0.225 | 0.272 | 0.209 | 0.236 | 0.356 | 0.484 | 0.487 | 0.464 | 0.508 | 0.598 | 0.604 | 0.584 | 0.385 | 0.546 | 0.532 | 0.571 |
| LXF-289 | 0.99 | 0.989 | 0.913 | 0.851 | 0.635 | 0.837 | 0.611 | 0.61 | 0.58 | 0.762 | 0.698 | 0.574 | 0.795 | 0.832 | 0.74 | 0.567 | 0.949 | 0.938 | 0.897 | 0.697 |
| NCI-H23 | 0.635 | 1.01 | 0.967 | 0.687 | – | 0.207 | 0.199 | 0.225 | 0.399 | 0.535 | 0.564 | 0.378 | – | 0.555 | 0.584 | 0.581 | – | 0.633 | 0.628 | 0.567 |
| NCI-H322M | 0.92 | 0.93 | 0.937 | 0.761 | 0.816 | 0.904 | 0.866 | 0.805 | 0.898 | 0.878 | 0.83 | 0.744 | 0.819 | 0.906 | 1.03 | 1.04 | 0.982 | 1.07 | 1 | 0.847 |
| NCI-H358 | 0.853 | 1.11 | 0.814 | 0.674 | 0.325 | 0.368 | 0.293 | 0.308 | 0.588 | 0.778 | 0.664 | 0.43 | 0.482 | 0.576 | 0.582 | 0.542 | 0.696 | 0.822 | 0.791 | 0.552 |
| NCI-H441 | 0.929 | 1.14 | 1.14 | 0.84 | 0.319 | 0.291 | 0.356 | 0.352 | 0.733 | 0.59 | 0.843 | 0.757 | 0.603 | 0.797 | 0.768 | 0.628 | 0.573 | 0.447 | 0.521 | 0.615 |
| NCI-H460 | 0.997 | 1.03 | 0.935 | 0.699 | 0.0362 | 0.0377 | 0.0408 | 0.0254 | 0.72 | 0.743 | 0.674 | 0.447 | 1.04 | 0.991 | 1.08 | 0.652 | 0.902 | 0.891 | 0.791 | 0.678 |
| NCI-H520 | 0.963 | 1.04 | 0.934 | 0.915 | 0.159 | 0.212 | 0.257 | 0.24 | 0.546 | 0.723 | 0.81 | 0.714 | 0.716 | 0.893 | 0.803 | 0.754 | 0.982 | 0.959 | 0.915 | 0.873 |
| NCI-H596 | 0.926 | 0.865 | 0.975 | 0.908 | 1.07 | 1.11 | 0.85 | 0.992 | 0.579 | 0.511 | 0.569 | 0.544 | 1.02 | 1.02 | 1.08 | 0.929 | 1.1 | 1.13 | 1.1 | 1.01 |
| NCI-H647 | 0.872 | 1.05 | 0.906 | 0.801 | 0.156 | 0.167 | 0.125 | 0.23 | 0.442 | 0.63 | 0.408 | 0.462 | 1.26 | 1.02 | 1.1 | 0.895 | 1.09 | 1.11 | 1.17 | 0.912 |
| NCI-H650 | 0.82 | 0.913 | 0.846 | 0.687 | 0.639 | 0.732 | 0.796 | 0.619 | 0.342 | 0.383 | 0.385 | 0.365 | 0.694 | 0.854 | 0.738 | 0.567 | 0.687 | 1.09 | 0.832 | 0.603 |
| NCI-H661 | 1 | 1.01 | 0.955 | 0.637 | 0.893 | 0.928 | 0.841 | 0.56 | 0.745 | 0.821 | 0.799 | 0.687 | 1.08 | 0.955 | 0.931 | 0.797 | 0.521 | 0.537 | 0.539 | 0.493 |
| NCI-H727 | 0.699 | 0.814 | 0.706 | 0.797 | 0.323 | 0.5 | 0.327 | 0.297 | 1.17 | 1.15 | 1.1 | 1.22 | 0.917 | 0.848 | 0.823 | 0.783 | 0.367 | 0.192 | 0.293 | 0.216 |
| NCI-H838 | 0.962 | 0.96 | 0.851 | 0.777 | 0.278 | 0.419 | 0.261 | 0.247 | 0.704 | 0.754 | 0.659 | 0.591 | 0.959 | 0.962 | 0.797 | 0.654 | 0.987 | 1.03 | 0.938 | 0.908 |
| NCI-H1355 | 0.942 | 0.981 | 0.917 | 0.681 | 0.667 | 0.761 | 0.72 | 0.463 | 0.574 | 0.631 | 0.565 | 0.534 | 0.929 | 1.14 | 0.977 | 0.555 | 0.745 | 0.822 | 0.78 | 0.633 |
| NCI-H1437 | 0.976 | 0.934 | 0.731 | 0.422 | 1.1 | 1 | 0.858 | 0.449 | 0.905 | 0.847 | 0.629 | 0.304 | 0.9 | 0.831 | 0.772 | 0.344 | 1.02 | 0.962 | 0.879 | 0.421 |
| NCI-H1651 | 0.92 | 0.988 | 0.964 | 0.727 | 1.01 | 0.701 | 0.748 | 0.591 | 0.473 | 0.531 | 0.606 | 0.52 | 0.856 | 0.81 | 0.853 | 0.611 | 0.999 | 0.949 | 0.942 | 0.731 |
| NCI-H1666 | 0.986 | 0.976 | 0.954 | 0.93 | 0.988 | 0.933 | 0.966 | 0.983 | 1.01 | 0.995 | 0.992 | 0.959 | 1.06 | 0.979 | 0.956 | 0.871 | 0.88 | 0.78 | 0.753 | 0.55 |
| NCI-H1734 | 0.724 | 1.07 | 0.945 | 0.821 | – | 0.207 | 0.215 | 0.176 | 0.547 | 0.784 | 0.822 | 0.778 | 0.625 | 0.691 | 0.648 | 0.588 | 0.838 | 0.939 | 0.876 | 0.866 |
| NCI-H1755 | 1 | 1.05 | 0.944 | 0.953 | 0.394 | 0.445 | 0.38 | 0.418 | 0.616 | 0.807 | 0.752 | 0.707 | 0.931 | 0.859 | 0.801 | 0.776 | 0.968 | 0.996 | 0.912 | 0.919 |
| NCI-H1915 | 0.863 | 1.03 | 0.906 | 0.792 | 0.81 | 0.797 | 0.775 | 0.644 | 0.44 | 0.481 | 0.534 | 0.532 | 0.907 | 0.871 | 0.867 | 0.688 | 1.08 | 1.12 | 1.08 | 0.896 |
| NCI-H1944 | 0.862 | 0.993 | 0.928 | 0.818 | 0.672 | 0.82 | 0.727 | 0.669 | 0.291 | 0.575 | 0.425 | 0.509 | – | 1.18 | 0.962 | 0.907 | – | 1.31 | 1.22 | 1.05 |
| NCI-H1975 | 0.919 | 0.965 | 0.87 | 0.82 | 0.178 | 0.22 | 0.164 | 0.167 | 0.651 | 0.744 | 0.675 | 0.622 | 1.06 | 1.08 | 0.948 | 0.842 | 0.95 | 0.986 | 0.925 | 0.784 |
| NCI-H1993 | 0.902 | 0.967 | 0.838 | 0.635 | 0.87 | 0.736 | 0.55 | 0.449 | 0.822 | 0.801 | 0.606 | 0.57 | 0.809 | 0.911 | 0.589 | 0.609 | 0.703 | 0.734 | 0.673 | 0.745 |
| NCI-H2009 | 0.964 | 1.01 | 0.92 | 0.701 | 0.996 | 1.02 | 0.938 | 0.686 | 0.732 | 0.762 | 0.693 | 0.602 | 1.1 | 1.06 | 0.903 | 0.677 | 1.2 | 1.09 | 1.13 | 1.05 |
| NCI-H2023 | 0.901 | 1.06 | 0.988 | 0.841 | 0.838 | 0.704 | 0.681 | 0.64 | 0.473 | 0.703 | 0.663 | 0.537 | 0.761 | 0.639 | 0.676 | 0.723 | 0.677 | 0.631 | 0.745 | 0.629 |
